Results published in patent publication US6416775B1, “Dry spreadable carrier for pesticides” (priority 1996, dated 2002).

Assay: Volatile materials in ventilating oven
Format: physicochemical
Conditions: after 2 hours at 141° F. (=60.5° C.) in a ventilating oven
Description: The moisture content of raw material Celite 500 is 3.7 weight percent. So, the weight of raw material Celite 500 is close to the dry weight of Celite 500. According to the product specifications of Supragil MNS/90, Soprophor S/40-P, and Supragil WP, the moisture contents of these components are no higher than 2 weight percent. Also, samples of chlorpyrifos technical were tested for volatile materials in a ventilating oven. The weight loss after 2 hours at 141° F. (=60.5° C.) was only 0.6 weight percent. […] Therefore, the dry spreadable granular product as manufactured above contains approximately 2.0 weight percent chlorpyrifos.

With CCOP(=S)(OCC)Oc1nc(Cl)c(Cl)cc1Cl [Chlorpyrifos] the weight loss was 0.6 weight percent.
